We go through one molecule from paper PMC12226733, “Evolution of iGluR ligand specificity, polyamine regulation, and ion selectivity inferred from a placozoan epsilon receptor” (Communications Biology, 2025).

Assay [1] concerns the target T1, GluE1αA S642Q (Trichoplax adhaerens, UniProt B3SAW0, S167Q).
T1 sequence (B3SAW0 1-341 S167Q): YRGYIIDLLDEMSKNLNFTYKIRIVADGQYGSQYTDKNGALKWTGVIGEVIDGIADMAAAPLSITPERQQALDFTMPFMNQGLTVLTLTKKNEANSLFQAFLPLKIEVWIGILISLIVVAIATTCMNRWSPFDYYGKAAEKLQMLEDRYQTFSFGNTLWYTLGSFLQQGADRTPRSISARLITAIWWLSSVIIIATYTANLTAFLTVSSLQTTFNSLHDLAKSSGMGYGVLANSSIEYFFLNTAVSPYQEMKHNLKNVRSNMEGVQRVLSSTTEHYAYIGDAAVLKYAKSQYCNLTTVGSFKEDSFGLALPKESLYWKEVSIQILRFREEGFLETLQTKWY
The text has this: (§1) To further elucidate the nature of internal polyamine block in GluE1αA, we performed outside-out membrane patch clamp experiments in wildtype and mutant channels. […] Current-voltage (I-V) relationships were converted to conductance-voltage (G-V) plots and fit with a single permeant blocker model to estimate both the dissociation constant for Spm at 0 mV (Kd(0mV)) and the voltage dependency of block, as previously described[46],[47].
(§2) HEK-293T/17 cells (ATCC) were maintained in MEM supplemented with GlutaMAX and 10% fetal bovine serum (FBS) at 37 °C and 5% CO2. […] Transient transfections were carried out 48 h post-plating using the calcium phosphate precipitation method. After 6–8 hours, cells were washed twice with PBS and maintained in fresh medium. Cells transfected with mammalian GluA2 cDNA (plasmid vector described above) were returned to an incubator at 37 °C for 24–48 hours and cells transfected with Epsilon GluE1αA were incubated at 28 °C for 48–72 hours. In cells co-transfected with TARP-γ2, 30 μM NBQX was included in the medium to minimize AMPAR/auxiliary-induced cytotoxicity. All constructs were co-transfected with a plasmid encoding enhanced green fluorescent protein (eGFP) to identify transfected cells. Electrophysiology responses were recorded from outside-out patches excised from transfected cells. Recording pipettes were composed of borosilicate glass (3 to 6 megaohm, King Precision Glass) coated with dental wax to reduce electrical noise. All recordings were performed using Axopatch 200B amplifier (Molecular Devices, LLC). Current records were filtered at 5 or 10 kHz and sampled at 25–50 kHz. Series resistance (3 to 12 megaohms) was compensated by 95%. Recordings were performed at a range of holding potentials from −100 mV to 100 mV to study polyamine block. Data was acquired using pClamp9 software (Molecular Devices, LLC). All experiments were performed at room temperature. All chemicals were purchased from Sigma-Aldrich, unless otherwise indicated. External solution contained (in mM): 150 NaCl, 5 HEPES, 0.1 CaCl2, 0.1 MgCl, and […], pH 7.3–7.4. […] The osmotic pressure of all solutions was adjusted to 295 to 300 mOsm with sucrose. […] Stocks were thawed on the day of the experiment and used to prepared agonist-containing external solutions. Raw data for all electrophysiology experiments are provided in Supplementary Data 3. Current-voltage (I-V) relationships were fit using Origin 7 (OriginLab) using a ninth order polynomial function to estimate the reversal potential (Vrev).
(§3) Agonist-evoked membrane conductance (G) was calculated using the following equation: G=I/(V−Vrev)
(§4) Conductance-voltage (G-V) relationships were fit using Origin 7 (OriginLab) with the single permeant blocker model as done previously[46]: G=Gmax/1+[Spm]/Kd Where Gmax is the maximal conductance, [Spm] is the internal Spm concentration, and Kd is the dissociation constant.
(§5) Kd is defined as: Kd=koff+kperm/kon=sumofexitrates/bindingrate
(§6) And redefined as: Kd=g*exp(V/h)+L*exp(V/k) Where h and k are voltage dependencies of g and L, respectively, and at 0 mV: g=koff/konandL=kperm/kon

In assay [2] the target is GluE1αA wt (Trichoplax adhaerens, UniProt B3SAW0). As to conditions: for Normalized current (Inorm) GluE1αA wild type: single recordings and AVG.
Sequence of GluE1αA wt (B3SAW0 1-341): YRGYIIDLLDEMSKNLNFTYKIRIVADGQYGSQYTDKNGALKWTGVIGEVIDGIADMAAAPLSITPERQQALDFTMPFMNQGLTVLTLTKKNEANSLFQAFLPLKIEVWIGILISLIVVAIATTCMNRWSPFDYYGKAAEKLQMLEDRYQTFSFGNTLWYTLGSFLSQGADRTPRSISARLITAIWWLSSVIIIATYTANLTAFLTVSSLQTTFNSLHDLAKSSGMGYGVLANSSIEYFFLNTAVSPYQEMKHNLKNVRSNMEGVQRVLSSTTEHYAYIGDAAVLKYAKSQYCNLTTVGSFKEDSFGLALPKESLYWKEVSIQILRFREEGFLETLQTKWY
Text: as §1, §2, §3, §4, §5, §6

For assay [3], the target named is T2, GluE1αA wildtype receptor (Trichoplax adhaerens, UniProt B3SAW0).
T2 sequence (B3SAW0 1-341): T1 sequence (B3SAW0 1-341 S167Q) with Q167S
As to conditions: wt. From the text: (§7) The cDNA of the T. adhaerens GluE1αA receptor was cloned into the mammalian expression vector pIRES2-EGFP, using a 5’ nested primer that inserted a mammalian consensus Kozak sequence of […] (Supplementary Table 5). Several mutants/variants of this receptor where also prepared via site directed mutagenesis using standard procedures and primers listed in Supplementary Table 5. For electrophysiological comparisons, we commissioned GenScript (USA) to synthesize the cDNA of the human GluA2 […] receptor (NCBI accession number NP_001077088.2), which was cloned into the pIRES2-EGFP vector with a Kozak sequence flanking the start codon and restriction enzymes SalI and BamHI at the 5’ and 3’ ends of the cDNA, respectively. Receptor cDNAs in the various pIRES2 constructs were transfected into Chinese Hamster Ovary-K1 (CHO-K1; Sigma) cells cultured in Dulbecco’s Modified Eagle Medium Nutrient Mixture F-12 (DMEM/F12) supplemented with 10% Fetal Bovine Serum (FBS) and 1% penicillin-streptomycin at 37°C. Transfections were done with 2 μg of plasmid vector using the transfecting reagent PolyJet^TM (SignaGen Laboratories, USA) according to the manufacturer’s instructions and plated onto glass coverslips in 35 mm dishes the next day. Transfected cells were incubated at 28°C for 2 to 4 days, then coverslips were transferred to a new 60 mm dish with 5 mL of external recording solution. […] Agonists and pharmacological compounds used in this study were dissolved in corresponding external solutions. […] Patch pipettes were pulled using a P-1000 micropipette puller (Sutter, USA), from thick-walled borosilicate tubing (1.5 and 0.86 outer and inner diameter, respectively), to a resistance of between 1 and 6 megaohms.

Assay [4] concerns GluE1αA D646A variant.
Text: as §7

Positions count from the first letter of the chain named. Several values for one entry are separate records, joined by “and”; a condition that tells them apart may be missing. Equal values may be shown once. Read-outs that look alike come from different tables or passages of the source.

Turning to `NCCCNCCCCNCCCN` [spermine], in assay [1] (-100 mV, single recordings c1-c10, AVG c11), the “Normalized current (Inorm)” value is on record as -1.00. Also, the figures for the “h, voltage dependency of block onset” value in assay [1] (GluE1αA S642Q) and in assay [2] (GluE1αA wt) were −15.3 ± 0.7 mV and −18.5 ± 0.6 mV, respectively. Besides, the “k, voltage dependency of block relief” value is recorded as 28.3 ± 2.1 mV in assay [1] (GluE1αA S642Q) and 36.5 ± 4.7 mV in assay [2] (GluE1αA wt). Also, the “Normalized current (Inorm) GluE1αA wild type” value in assay [2] (50 mV) was 0.16 and 0.13 and 0.0847; in assay [2] (-100 mV), -1.00. The “normalized current elicited by 3 mM glycine with co-applied spermine, Avg” value in assay [3] (spermine 200 µM extracellular) came to 0.8673; in assay [3] (spermine 1000 µM extracellular), 0.8213; in assay [4] (spermine 200 µM extracellular) it was 0.8603; in assay [4] (spermine 1000 µM extracellular) it was 0.5979. For the same molecule, in assay [4] (200 µM extracellular spermine), the “reduction in peak inward current (percent block)” value is 14.0 ± 1.1%. Besides, in assay [4] (1000 µM extracellular spermine), the “reduction in peak inward current” value is 40.2 ± 3.4%.
